Patent US20240209027A1, “PEPTIDE AND PEPTIDE-CONTAINING COMPOSITION” (PeptiAID Inc.,, priority 2021, published 2024)
Starred links: 1 amine or outer side, 2 acyl side, 3 side chain; linkers in the order of their positions; H or OH if unused. Positions of bridges follow the written chain, without caps; N, C: chain ends. Non-standard residues stand in square brackets, D forms with d. Residues, ends and D or L forms follow the SMILES beside them. Ala(piperidin-4-yl) = O=C([C@H](CC1CCN([*:3])CC1)N[*:1])[*:2]; Phe(4-COOH) = N[C@@H](Cc1ccc(C(=O)O)cc1)C(=O)O; Phe(4-F) = N[C@@H](Cc1ccc(F)cc1)C(=O)O; NMeF = CN[C@@H](Cc1ccccc1)C(=O)O; NMeE = CN[C@@H](CCC(=O)O)C(=O)O; Cha = N[C@@H](CC1CCCCC1)C(=O)O; NMeNle = CCCC[C@H](NC)C(=O)O; Aib = CC(C)(N)C(=O)O

Experiments:
[1] = tested on: SARS-CoV2 (USA WA1/2020 strain); conditions: 72 h
in vitro = conditions: African green monkey
[2] = tested on: SARS-CoV-2 (JPN/TY/WK-521 strain); type: cell-based; parameters: key: the case where the peptide was found to have anti-SARS-CoV-2 activity when added at 50 nM was designated as “2”; the case where no activity was found upon the addition at 50 nM but the activity was found at 1 μM was designated as “1”; conditions: peptide added at 50 nM or 1 μM

CN1C(=O)CSC[C@@H](C(=O)N[C@H](CCC(=O)O)C(=O)O)NC(=O)[C@H](CC2CCCCC2)NC(=O)[C@H](CC2CCNCC2)NC(=O)[C@H](Cc2ccc(C(=O)O)cc2)NC(=O)[C@H](Cc2ccc(O)cc2)NC(=O)[C@H](Cc2ccc(O)cc2)NC(=O)[C@H](CCC(=O)O)N(C)C(=O)[C@H](Cc2ccc(F)cc2)NC(=O)[C@H](CC2CCCCC2)NC(=O)C(C)(C)NC(=O)[C@H](Cc2ccccc2)N(C)C(=O)[C@@H]1CCC(=O)O [Peptide 5555_p119] ({CH2CO}-[NMeE][NMeF][Aib][Cha][Phe(4-F)][NMeE]YY[Phe(4-COOH)][Ala(piperidin-4-yl)][Cha]C[dE]-OH; thioether N-12)
IC50 [1]: 18.2 nM | CC50 at 72 h (in vitro): > 100000 nM

CN1C(=O)CSC[C@@H](C(=O)N[C@H](CCC(=O)O)C(N)=O)NC(=O)[C@H](CC2CCCCC2)NC(=O)[C@H](CCCCN)NC(=O)[C@H](Cc2ccc(C(=O)O)cc2)NC(=O)[C@H](Cc2ccc(O)cc2)NC(=O)[C@H](Cc2ccc(O)cc2)NC(=O)[C@H](CCC(=O)O)N(C)C(=O)[C@H](Cc2ccc(F)cc2)NC(=O)[C@H](CC2CCCCC2)NC(=O)[C@H](CO)NC(=O)[C@H](Cc2ccccc2)N(C)C(=O)[C@@H]1CCC(=O)O [Peptide 5555_p088] ({CH2CO}-[NMeE][NMeF]S[Cha][Phe(4-F)][NMeE]YY[Phe(4-COOH)]K[Cha]C[dE]-NH2; thioether N-12)
IC50 [1]: 11.4 nM | CC50 at 72 h (in vitro): > 100000 nM

CCCC[C@H]1C(=O)NC(C)(C)C(=O)N[C@@H](CC2CCCCC2)C(=O)N[C@@H](Cc2ccc(F)cc2)C(=O)N(C)[C@@H](CCC(=O)O)C(=O)N[C@@H](Cc2ccc(O)cc2)C(=O)N[C@@H](Cc2ccc(O)cc2)C(=O)N[C@@H](Cc2ccc(C(=O)O)cc2)C(=O)N[C@H](CCCNC(=N)N)C(=O)N[C@@H](CC2CCCCC2)C(=O)N[C@H](C(N)=O)CSCC(=O)N(C)[C@@H](CCC(=O)O)C(=O)N1C [Peptide 5555_p005] ({CH2CO}-[NMeE][NMeNle][Aib][Cha][Phe(4-F)][NMeE]YY[Phe(4-COOH)][dR][Cha]C-NH2; thioether N-12)
IC50 [1]: 5 nM | CC50 at 72 h (in vitro): > 100000 nM

CCCC[C@H]1C(=O)NC(C)(C)C(=O)N[C@@H](CC2CCCCC2)C(=O)N[C@@H](Cc2ccc(F)cc2)C(=O)N[C@H](CC(=O)O)C(=O)N[C@@H](Cc2ccc(O)cc2)C(=O)N[C@@H](Cc2ccc(O)cc2)C(=O)N[C@@H](Cc2ccc(C(=O)O)cc2)C(=O)N[C@@H](CC2CCNCC2)C(=O)N[C@@H](CC2CCCCC2)C(=O)N[C@H](C(=O)N[C@H](CCC(=O)O)C(N)=O)CSCC(=O)N(C)[C@@H](CCC(=O)O)C(=O)N1C [Peptide 5555_p026] ({CH2CO}-[NMeE][NMeNle][Aib][Cha][Phe(4-F)][dD]YY[Phe(4-COOH)][Ala(piperidin-4-yl)][Cha]C[dE]-NH2; thioether N-12)
Anti-SARS-CoV-2 activity [2]: 2 | IC50 [1]: 8.1 nM

CCCC[C@H]1C(=O)NC(C)(C)C(=O)N[C@@H](CC2CCCCC2)C(=O)N[C@@H](Cc2ccc(F)cc2)C(=O)N(C)[C@@H](CCC(=O)O)C(=O)N[C@@H](Cc2ccc(O)cc2)C(=O)N[C@@H](Cc2ccc(O)cc2)C(=O)N[C@@H](Cc2ccc(C(=O)O)cc2)C(=O)N[C@H](CCCNC(=N)N)C(=O)N[C@@H](CC2CCCCC2)C(=O)N[C@H](C(=O)N[C@H](CCC(=O)O)C(N)=O)CSCC(=O)N(C)[C@@H](CCC(=O)O)C(=O)N1C [Peptide 5555_p039] ({CH2CO}-[NMeE][NMeNle][Aib][Cha][Phe(4-F)][NMeE]YY[Phe(4-COOH)][dR][Cha]C[dE]-NH2; thioether N-12)
IC50 [1]: 7.4 nM | CC50 at 72 h (in vitro): > 100000 nM
